Two molecules from patent US12622915B2, “Methods of treating PDE IV-mediated diseases or conditions” (Vanda Pharmaceuticals Inc., priority 2020, dated 2026) can be followed below.

This data set concerns IMQ induced psoriasis. As to the method:
Test Item Details • 1. Dexamethasone Cat. or Batch no.: BCBM4557V (sigma) • Vehicle for dexamethasone (Veh.1): acetone:ethanol (1:1) • Dose: 0.1 mg/ear & 0.25 mg in back skin • Dose volume: 20 μL/ear & 50 μL on back skin • 2. Crisaborole: PZ0037 (Sigma) • Vehicle (Veh.1): acetone:ethanol (1:1) • Dose: 0.1 mg/ear & 0.25 mg in back skin • Dose volume: 20 μL/ear, 50 μL on back skin • 3. Compound of Formula (I) • Vehicle (Veh.1): acetone:ethanol (1:1) • Dose: 0.1 mg/ear & 0.25 mg in back skin • Dose volume: 20 μL/ear, 50 μL on back skin Dexamethasone and Test Item Preparation and Application: • Strength=5 mg/ml
Application=100 μg/20 pit per each ear+250 μg/50 μL on the back G2 to G4 receive Dexamethasone, Crisaborole or test item: Daily topical treatment (D0-D6): 0.1 mg in 20 μl per ear x both the ears+0.25 mg in 50 μl (on the back) 6-8 hrs after IMQ application.
Disease Induction: Application of 5% IMQ cream 40 mg (back) and 5 mg (per ear—Inner surface) daily from day 0-6.
Treatment: 0.5% Dexamethasone solution: 0.25 mg (back) and 0.1 mg (per ear) 8 hrs post IMQ. • Day −2—Depilation on back region • Day 0—Observations (Body weight; ear thickness using digital microcaliper) • Day 2—Observations (Body weight; ear thickness using digital microcaliper) • Day 4—Observations (Body weight; ear thickness using digital microcaliper) • Day 6—Observations (Body weight; ear thickness using digital microcaliper); Blood collection (PK) and Termination {2 hrs after last dose) • Ear collection: PK, Cytokine, MPO, Thickness • Back skin collection, scoring and thickness measurement • Histopathology (optional)
The dorsal posterior area (2 cm×2 cm) of animals is depilated using a hair trimmer. 5% Imiquimod cream: 50 mg/animal (40 mg on the shaved back+5 mg each on the inner part of right and left ear) QD is applied on days 0 to 5 (Groups 1-4).
The body weight is recorded individually for all animals at receipt, day of randomization, prior to treatment, and once in two days thereafter. The animals are observed for mortality at regular intervals.
2 hrs post compound treatment on day 6, all the animals are euthanized, and ear tissues are collected. The right ear is flash frozen in liquid nitrogen and stored at −80° C. until homogenization for MPO and cytokine estimation.
The half of the left ear is used for drug concentration measurement. The other half of the left ear tissue is used for histopathology. The back skin is collected for visual assessment (scoring) and histopathology.
MPO analysis: Snap frozen ear tissue samples are homogenized in 1× assay buffer provided in the kit. The homogenates are centrifuged at 8000 g for 10 minutes in a refrigerated centrifuge. The supernatants are discarded, and the pellet is resuspended in solubilisation buffer (1× assay buffer containing 0.5% HTABr). The samples are homogenized and subjected to three rounds of freeze thaw followed by brief sonication for 10s. The samples are centrifuged at 12,000 g for 10 minutes in a refrigerated centrifuge and the resulting supernatants are analysed for MPO levels based on a fluorometric detection kit. The Kit utilizes a non-fluorescent detection reagent, which is oxidized in the presence of hydrogen peroxide and MPO to produce its fluorescent analogue. (Enzo Life Sciences; ADI-907-029).
Histopathology: At study termination, posterior dorsal skin and ear skin samples are collected. Skin samples are processed using routine histopathological methods and 4-5 μm paraffin sections are prepared. Tissue sections (3 serial sections/animal) are stained with Hematoxylin and eosin (H&E) to evaluate acanthosis, hyper/parakeratosis and inflammatory cellular infiltration in dermis. Severity of lesions are assessed semi quantitatively on a scale of 0-4 by two independent pathologists (0—normal, 1—mild degree, 2—moderate degree, 3—severe degree and 4—extensive or multiple locations) for each parameter in a blinded manner.

For the molecule `N#Cc1ccc(Oc2ccc3c(c2)COB3O)cc1` [Crisaborole, reference compound], the “MPO activity in ear tissue homogenates” value (day 6, topical 0.5%, vs IMQ control) is given as “do not show significant inhibition”. Moreover, under “day 6 at termination, topical 0.5%, vs IMQ control”, the Back skin thickness result was “do not show significant reduction”. The “Cumulative clinical scores (erythema, skin thickness, scales)” value (topical 0.5%, back skin, maximum score 12, vs IMQ control) is reported as “significant reduction in the cumulative clinical scores on day 6”. The Ear thickness result (topical 0.5%, daily, vs IMQ control) was “significant reduction in ear thickness on day 6”. The “Overall cumulative HP scores of ear skin” value (topical 0.5%, maximum score 16, vs IMQ control) is recorded as “significant reduction”. The “Spleen weight or normalized spleen weight” value (topical 0.5%, vs IMQ control) is “do not show significant reduction”. Moreover, the “Cytokine levels in ear tissue homogenates” value (topical treatment, vs IMQ control) was “significant reduction in few of the proinflammatory cytokines”.
For the molecule `C[C@@H]1C[C@H]2[C@@H]3CCC4=CC(=O)C=C[C@]4(C)[C@@]3(F)[C@@H](O)C[C@]2(C)[C@@]1(O)C(=O)CO` [Dexamethasone, reference compound], under “mouse, in vivo”, the “Body weight / body weight loss” value was “significant body weight loss”.
